Earlier results on one substance are cited in patent US20240245628A1, “COMPOSITIONS AND METHODS FOR HEALTH COMPRISING CO-ENZYME Q10” (Bausch + Lomb Ireland Limited, priority 2023, published 2024).

The conditions of this data set: at levels as high as 800.0 mg.

As to vitamin E, the “adverse effects of vitamin E” value is listed as “No adverse effects”.
